One block for each molecule: values may come before it.
What was measured:
[1] = Metabolism in synaptosomes (GABA shunt, glutamate-glutamine cycle); type: in vitro ADME, mouse; conditions: mouse, mouse cerebral synaptosomes; synaptosomes preloaded with 100 μM substrate, 37 °C; estimated; read-out: Synaptosomal concentration half life
Experimental: (§1) To each tube, a 5 μL aliquot of a test compound solution (final concentration 100 μM) in Buffer KRP or Buffer KRP alone were added. The samples were incubated for 15 min at 37 °C, briefly chilled on ice, and then immediately centrifuged and washed twice by resuspension-centrifugation with Buffer S (0.5 mL). The pellets were then resuspended in Buffer KRP (500 μL). Samples were then immediately centrifuged or incubated for 5, 10, 15, 20, 25 or 30 min at 37 °C and then centrifuged and washed by resuspension-centrifugation with Buffer S (0.5 mL). Resulting pellets were resuspended in 170 μL of 0.1% aqueous formic acid, mixed with 330 μL of ACN. To each tube, 5 μL of 2MeGlu solution (final concentration 100 μM) in Buffer KRP or Buffer KRP alone were added. The samples were incubated for 15 min at 37 °C, briefly chilled on ice, and then immediately centrifuged and washed twice by resuspension-centrifugation with Buffer S (0.5 mL). The pellets were then resuspended in Buffer KRP (200 μL). Samples were then kept on ice or incubated for 10, 20, 30, 40 or 50 min at 37 °C and then chilled on ice. Then all samples were centrifuged, 200 μL of supernatants were collected, and the pellets were suspended in 200 μL of 80% ACN. Supernatants and pellet suspensions were diluted with 250 μL of ACN and 50 μL of 10 μM d[…] in water as internal standard.

[2] = tested on: mouse cerebral synaptosomes; test: as above; type: in vitro ADME; conditions: synaptosomes preloaded with 100 μM substrate
Experimental: as §1

[3] = target: human glutamine synthetase (Homo sapiens, UniProt P15104); set-up: method as in PMID 5320388; conditions: identical conditions with L-Glu; cited from earlier work
human glutamine synthetase, sequence (P15104 whole entry): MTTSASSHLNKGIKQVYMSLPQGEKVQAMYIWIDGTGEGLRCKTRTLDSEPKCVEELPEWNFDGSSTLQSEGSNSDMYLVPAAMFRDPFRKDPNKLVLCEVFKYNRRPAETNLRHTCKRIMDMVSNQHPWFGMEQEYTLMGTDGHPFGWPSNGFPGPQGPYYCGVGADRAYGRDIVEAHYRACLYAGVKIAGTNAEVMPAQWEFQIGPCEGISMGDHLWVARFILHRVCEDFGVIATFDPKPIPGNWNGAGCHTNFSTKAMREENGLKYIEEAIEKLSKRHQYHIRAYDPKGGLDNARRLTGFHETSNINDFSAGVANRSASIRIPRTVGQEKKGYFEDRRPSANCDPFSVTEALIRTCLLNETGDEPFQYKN

[4] = tested on: mouse cerebral synaptosomes; test: Synaptosomal neurotransmitter uptake assay; type: cell-based; conditions: 10 μM substrate, 37 °C
Experimental: Mouse cerebral synaptosomes were prepared according to published methods. See Supplementary Methods for details. 500 μL aliquots of the synaptosome suspension were transferred to pre-chilled microcentrifuge tubes for experiments. Centrifugations were at 8000g for 4 min at 4 °C, unless stated otherwise, and all samples were stored at − 80 °C.
To each tube, 5 μL of a test compound solution (final concentration 10 μM) in Buffer KRP or Buffer KRP alone were added. Samples were incubated at 4 °C or 37 °C for 1, 10, or 30 min and then immediately centrifuged and washed twice by resuspension–centrifugation with Buffer S (0.5 mL). Resulting pellets were resuspended in 170 μL of 0.1% aqueous formic acid and mixed with 330 μL of ACN.
Buffer S (4 mL, × 1) and Buffer KRP (2 mL, × 3). The resulting pellet was resuspended in 3 mL of Buffer KRP and filtered on Ultrafree-CL 5 μm PVDF centrifugal device (1,000g for 4 min at 4 °C). The filtrate was diluted to 15 mL with ice cold Buffer KRP and kept on ice. The synaptosome preparation was used immediately in the following experiments.
Synaptosomal neurotransmitter uptake assay
96-well plate experiments: 250 μL aliquots of the synaptosome suspension were transferred to two 0.8-mL 96 well plates, one on ice (0 °C samples only) and one in a thermoblock (37 °C samples only), and equilibrated for 10 min. 5 μL of a test compound (0.5 mM; final concentration: 10 μM) in Buffer KRP or Buffer KRP blank were added 10, 20 or 30 min before the incubation termination. “0 min” samples were prepared by placing the test compound solution in a separate pre-chilled V-shape bottom 2-mL 96 well plate; at the end of incubation 200 μL aliquots of all samples were transferred to the 2-mL 96 well plate and centrifuged (2,500g for 15 min at 4 °C) immediately. The resulting pellets were rinsed with Buffer KRP, followed by centrifugation, twice, then resuspended in 200 μL of 60% ACN containing 2.5 μM Glu-d5 as internal standard and stored at –80 °C until analysis. […]

[5] = tested on: mouse cerebral synaptosomes; test: Potassium-induced neurotransmitter release assay; type: cell-based; conditions: preincubated with 100 μM substrate 15 min 37 °C; high-potassium KRP buffer
Experimental: To each tube, 2.5 μL of a test compound solution (final concentration 100 μM) in Buffer KRP or Buffer KRP alone were added. Samples were incubated for 15 min at 37 °C, briefly chilled on ice, and then immediately centrifuged and washed twice with Buffer KRP. The resulting pellets were then resuspended in either Buffer KRP (500 μL) or Buffer K-KRP (500 μL). Samples were immediately centrifuged or incubated for 5, 10 or 15 min at 37 °C, then centrifuged and washed with Buffer KRP. Resulting pellets were resuspended in 400 μL of 60% ACN containing 2.5 μM Glu-d5 and 2.5 μM Gln-d5 as internal standards.

human glutaminase GLS1 = target: T1, human glutaminase GLS1 (Homo sapiens, UniProt O94925); test: Catalysis of 2MeGln hydrolysis by GLS1 glutaminase; type: biochemical
T1 sequence (O94925 55-669): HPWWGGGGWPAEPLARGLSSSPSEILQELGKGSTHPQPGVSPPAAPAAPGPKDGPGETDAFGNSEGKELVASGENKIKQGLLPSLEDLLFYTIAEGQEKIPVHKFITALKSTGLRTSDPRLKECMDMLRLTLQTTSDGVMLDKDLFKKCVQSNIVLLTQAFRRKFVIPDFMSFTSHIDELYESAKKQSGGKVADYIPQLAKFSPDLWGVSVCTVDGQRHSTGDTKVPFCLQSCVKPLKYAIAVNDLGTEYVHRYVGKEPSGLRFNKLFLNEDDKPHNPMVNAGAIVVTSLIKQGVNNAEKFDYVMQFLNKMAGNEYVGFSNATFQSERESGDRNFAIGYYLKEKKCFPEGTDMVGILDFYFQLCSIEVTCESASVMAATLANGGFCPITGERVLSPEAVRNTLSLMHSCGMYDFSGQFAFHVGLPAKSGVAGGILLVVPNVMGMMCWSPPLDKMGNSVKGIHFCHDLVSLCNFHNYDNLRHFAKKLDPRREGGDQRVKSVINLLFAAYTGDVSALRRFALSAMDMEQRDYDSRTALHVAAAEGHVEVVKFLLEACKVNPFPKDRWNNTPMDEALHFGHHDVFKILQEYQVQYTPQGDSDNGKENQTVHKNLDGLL
Experimental: The procedure was adapted from an existing protocol. To a reaction mixture in a 1.5 mL microcentrifuge tube containing 10 mM rac-2MeGln or L-Gln-^13C2 in 100 mM phosphate pH 7.4 buffer made in 20% atom ^18O water, recombinant GLS1 (final concentration: 5 ng/mL) was added. The tubes were incubated in a preheated thermomixer at 37 °C and periodically shaken at 600 rpm (30 s on, 30 s off). 5 μL aliquots were collected in triplicate every 5 min and immediately diluted with 195 μL of cold 60% ACN containing 10 μM Glu-d5 and Gln-d5 as internal standards in a 96 well plate. After collecting all samples, the plate was shaken at 1000 rpm for 5 min at room temperature, and then stored at − 80 °C. Before analysis the plate was thawed and 10 μL aliquots of the extracted reaction mixtures were diluted with 190 μL of 90% acetonitrile.
The quantification of the newly formed 2MeGlu in the presence of the preexisting trace amounts was performed in the following way. Peak area ratio of Glu-^13C2 to Glu-^13C2^18O was calculated in all samples containing Glu-^13C2. The mean ratio value was then applied to calculate the hypothetical peak area of the newly formed 2MeGlu based on the directly measured 2MeGlu-^18O peak area. The ratio of the newly formed 2MeGlu peak area and the total 2MeGlu peak area was applied to calculate the concentration of the newly formed 2MeGlu from the total 2MeGlu concentration determined directly using the calibration curve.

[6] = tested on: murine primary cerebral cortical neuron cultures; test: Neuronal transport and metabolism of 2MeGln; type: cell-based, mouse; conditions: 1 mM substrate, 2 h, 37 °C; data not shown
Experimental: The procedure was adapted from an existing protocol. Wild-type (WT) C57BL/6J mating pairs were housed according to Stanford IACUC protocol. On day P0, pups were euthanized and brains dissected in cold HBSS (without Ca^2+ or Mg^2+). The forebrain was microdissected to isolate the cortex and hippocampus. These brain regions were minced in cold HBSS before trypsinization at 37 °C for 9 min, followed by trituration, through 2 glass polished Pasteur pipettes. The resulting cell suspension was passed through a 100 μm filter to isolate single cells which were sedimented at 250g for 5 min. The cell pellet was then resuspended in complete Neural Basal Media (Neural Basal Media + Glutamax + B-27 Plus Supplement + Pen/Strep) + 10%FBS, counted using a hemocytometer and plated at 1 × 10^6 cells per mL into a 24 well plate (1 mL per well) coated with poly-D-lysine and laminin. Cultures were grown at 37 °C/5% CO2 in a tissue culture incubator. Media was exchanged 50% on day 1 in vitro (1DIV) with fresh complete Neural Basal Media without FBS and thereafter every other day with the same media. On 3DIV the media was spiked with 2 μM AraC to limit glial growth. On 10DIV the media was completely replaced with 500 μL Neural Basal Media containing B-27 Plus Supplement + Pen/Strep without added Glutamax but instead containing 1 mM substrate at 37 °C for 2 h. […]

[7] = tested on: primary murine cerebral astrocytes; test: Astrocyte transport and metabolism of 2MeGlu; type: cell-based, mouse; conditions: 1 mM substrate, 2 h, 37 °C
Experimental: Primary astrocytes from C57Bl/6 mouse brain were cultured in complete astrocyte growth medium at 37 °C at 5% CO2 on 96 well plates. Cells were exposed to 1 mM compound in 100 μL medium for 2 h at 37 °C. Supernatants were collected, centrifuged at 2500g for 10 min at 4 °C. 10 μL aliquots were diluted with 190 μL 60% ACN containing 10 μM Glu-d5 and Gln-d5. Cells were quickly washed with 250 μL cold PBS twice and suspended in 200 μL of 60% ACN containing 10 μM Glu-d5 and Gln-d5. All samples were shaken at 1000 rpm for 5 min and then stored at – 80 °C.

SMILES: CC(N)CCC(=O)O (racemic) [rac-4APA, 4-aminopentanoic acid]
- Transport into synaptosomes [4]: transported into synaptosomes
- Potassium-induced release from preloaded synaptosomes [5]: exhibited high potassium concentration-dependent release

SMILES: C[C@](N)(CCC(N)=O)C(=O)O [(S)-2MeGln, (S)-2-methylglutamine]
- Substrate for GLS1 (human glutaminase GLS1): substrates of GS and GLS1, respectively

SMILES: NC(=O)CC[C@H](N)C(=O)O [Gln, L-glutamine, reference compound]
- Apparent reaction rate of GLS1 hydrolysis (human glutaminase GLS1; 10 mM substrate, 5 ng/mL enzyme, phosphate pH 7.4): 65 µM/min

SMILES: NC(=O)CC[13C@H](N)[13C](=O)O [L-[1,2-^13C]Gln]
- Intracellular [1,2-13C]Gln relative to 2MeGln in neurons [6]: twofold lower
- Intracellular [1,2-13C]Glu relative to 2MeGlu in neurons [6]: over fivefold lower

Now from value to molecule, other results behind:

- half-life at 100 μM [1]: 21 min
SMILES: CC(N)(CCC(=O)O)C(=O)O (racemic) [rac-2MeGlu, 2-methylglutamate]
- Metabolism along the GABA shunt in synaptosomes [2]: not associated with the concurrent appearance of 4APA or any other 2Me analogue within the GABA shunt
- Inorganic phosphate released with GS and ATP relative to L-Glu [3]: 50%

- Extracellular concentration of amide product (2MeGln or [1,2-13C]Gln), astrocyte cultures [7]: 5.0 nmol/well
- Intracellular concentration of amide product (2MeGln or [1,2-13C]Gln) in astrocytes [7]: 0.26 nmol/well
SMILES: N[C@@H](CCC(=O)O)C(=O)O [L-[1,2-^13C]Glu, reference compound]
